Laboratory results reported in patent publication US8178668B2, “2-aminopyridine kinase inhibitors” (OSI Pharmaceuticals, LLC, priority 2008, dated 2012).
Where a name gives a salt, the structure may show the parent alone.

Tests used:
[1] = target: RON (human) (Homo sapiens, UniProt Q04912); assay: RON kinase AlphaScreen assay (Km of ATP); assay type: biochemical; conditions: ATP at Km; at least duplicate experiments
In short: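 Human RON phosphorylated biotinylated poly(Glu,Tyr) (200 ng/μL) at Km ATP in 50 mM HEPES pH 7.4, 12.5 mM MgCl2, 1% glycerol, 0.334 mM vanadate, 1% DMSO. Reaction ran 30 min at RT after enzyme addition. Product was detected by AlphaScreen with PT66 beads after 1 h.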

[2] = target: MET (human) (Homo sapiens, UniProt P08581); assay: MET kinase AlphaScreen assay (Km of ATP); assay type: biochemical; conditions: ATP at Km; at least duplicate experiments
In short: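 Biotinylated poly(Glu,Tyr) (200 ng/μL) phosphorylated by MET with ATP at an enzyme-optimized level, in 50 mM HEPES pH 7.4 with Mg2+/Mn2+ and vanadate, 1% DMSO. Reaction runs 60 min at RT. PT66 AlphaScreen donor/acceptor beads are added and signal is read after 1 h.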

Sequence of RON (human) (Q04912 25-1400): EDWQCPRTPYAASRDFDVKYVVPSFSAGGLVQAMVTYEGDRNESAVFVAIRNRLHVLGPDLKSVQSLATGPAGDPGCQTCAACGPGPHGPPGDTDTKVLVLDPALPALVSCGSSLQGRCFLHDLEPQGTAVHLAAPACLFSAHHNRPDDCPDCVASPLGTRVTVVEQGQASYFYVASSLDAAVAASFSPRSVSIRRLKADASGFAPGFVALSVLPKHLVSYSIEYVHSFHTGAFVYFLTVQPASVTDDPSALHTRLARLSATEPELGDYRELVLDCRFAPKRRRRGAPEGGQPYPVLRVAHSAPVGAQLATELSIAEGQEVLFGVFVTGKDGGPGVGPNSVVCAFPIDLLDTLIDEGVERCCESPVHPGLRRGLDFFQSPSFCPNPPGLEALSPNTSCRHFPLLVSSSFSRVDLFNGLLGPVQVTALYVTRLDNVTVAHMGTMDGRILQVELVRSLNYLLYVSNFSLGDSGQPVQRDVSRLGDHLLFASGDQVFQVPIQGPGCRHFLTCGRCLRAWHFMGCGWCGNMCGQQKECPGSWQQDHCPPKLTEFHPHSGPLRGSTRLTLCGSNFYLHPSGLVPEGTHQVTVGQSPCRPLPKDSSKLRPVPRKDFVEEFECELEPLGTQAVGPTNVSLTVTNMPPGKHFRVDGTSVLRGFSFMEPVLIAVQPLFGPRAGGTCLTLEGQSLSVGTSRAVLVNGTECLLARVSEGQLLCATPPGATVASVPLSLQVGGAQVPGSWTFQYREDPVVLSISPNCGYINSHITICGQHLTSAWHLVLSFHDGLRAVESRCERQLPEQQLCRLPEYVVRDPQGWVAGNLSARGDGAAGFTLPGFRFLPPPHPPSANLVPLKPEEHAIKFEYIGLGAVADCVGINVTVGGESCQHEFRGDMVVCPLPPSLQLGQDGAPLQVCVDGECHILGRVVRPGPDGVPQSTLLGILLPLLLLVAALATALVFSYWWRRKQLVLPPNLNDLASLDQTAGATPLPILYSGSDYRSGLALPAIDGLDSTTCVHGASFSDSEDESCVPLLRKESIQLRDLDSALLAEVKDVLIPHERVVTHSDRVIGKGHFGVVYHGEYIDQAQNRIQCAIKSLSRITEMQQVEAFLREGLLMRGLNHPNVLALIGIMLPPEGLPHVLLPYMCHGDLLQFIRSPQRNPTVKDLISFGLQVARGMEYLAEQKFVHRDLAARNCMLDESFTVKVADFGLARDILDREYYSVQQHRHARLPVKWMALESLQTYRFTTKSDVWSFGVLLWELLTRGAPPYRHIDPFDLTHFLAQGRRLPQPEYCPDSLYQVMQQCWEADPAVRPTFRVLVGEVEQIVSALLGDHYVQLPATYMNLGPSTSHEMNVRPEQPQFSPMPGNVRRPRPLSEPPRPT
Sequence of MET (human) (P08581 25-1390): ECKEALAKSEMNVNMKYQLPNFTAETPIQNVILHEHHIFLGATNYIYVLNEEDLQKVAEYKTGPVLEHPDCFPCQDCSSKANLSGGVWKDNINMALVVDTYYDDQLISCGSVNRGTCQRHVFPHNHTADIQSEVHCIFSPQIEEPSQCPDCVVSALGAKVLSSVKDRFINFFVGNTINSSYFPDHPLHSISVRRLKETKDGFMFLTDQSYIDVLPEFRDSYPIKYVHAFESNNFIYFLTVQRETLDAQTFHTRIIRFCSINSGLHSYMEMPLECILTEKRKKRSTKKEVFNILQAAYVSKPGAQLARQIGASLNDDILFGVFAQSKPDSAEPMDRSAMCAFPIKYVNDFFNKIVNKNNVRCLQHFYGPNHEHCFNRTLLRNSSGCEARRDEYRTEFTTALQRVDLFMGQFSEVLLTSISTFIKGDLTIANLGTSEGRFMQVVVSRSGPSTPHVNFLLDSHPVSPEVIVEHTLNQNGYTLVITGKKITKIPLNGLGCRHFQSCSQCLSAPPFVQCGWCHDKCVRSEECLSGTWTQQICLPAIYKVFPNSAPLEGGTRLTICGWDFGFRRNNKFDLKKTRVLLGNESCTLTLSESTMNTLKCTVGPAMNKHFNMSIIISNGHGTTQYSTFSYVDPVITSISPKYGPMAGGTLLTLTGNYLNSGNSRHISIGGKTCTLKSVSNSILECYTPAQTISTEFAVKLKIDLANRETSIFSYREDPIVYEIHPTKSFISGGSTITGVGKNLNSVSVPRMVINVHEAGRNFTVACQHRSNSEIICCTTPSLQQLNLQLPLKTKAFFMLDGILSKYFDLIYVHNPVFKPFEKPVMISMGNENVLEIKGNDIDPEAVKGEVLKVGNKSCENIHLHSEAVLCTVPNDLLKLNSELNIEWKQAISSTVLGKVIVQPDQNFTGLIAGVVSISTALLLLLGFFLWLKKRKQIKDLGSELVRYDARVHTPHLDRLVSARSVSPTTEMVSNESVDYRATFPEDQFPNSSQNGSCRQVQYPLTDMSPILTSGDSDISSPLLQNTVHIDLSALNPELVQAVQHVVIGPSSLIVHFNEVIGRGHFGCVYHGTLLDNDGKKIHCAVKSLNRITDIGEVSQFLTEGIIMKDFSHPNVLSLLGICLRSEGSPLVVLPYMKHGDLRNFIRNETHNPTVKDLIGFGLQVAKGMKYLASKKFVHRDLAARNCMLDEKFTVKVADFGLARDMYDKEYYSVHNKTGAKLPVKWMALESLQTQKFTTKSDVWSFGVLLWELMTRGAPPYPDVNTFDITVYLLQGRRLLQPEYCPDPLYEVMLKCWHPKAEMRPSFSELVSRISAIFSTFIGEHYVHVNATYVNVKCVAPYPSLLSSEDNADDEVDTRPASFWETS

Row | SMILES | IC50 [1] | IC50 [2]
1 | CC(C(=O)N1CCCCC1)n1cc(-c2cnc(N)c(-c3nc4ccccc4s3)c2)cn1 (stereo not drawn) [Example 152, 2-[4-(6-Amino-5-benzothiazol-2-ylpyridin-3-yl)-pyrazol-1-yl]-1-piperidin-1-ylpropan-1-one] | 1000 to 20000 nM | 1000 to 20000 nM
2 | Nc1ncc(-c2cnn(CCC(=O)N3CCCC3)c2)cc1-c1nc2ccccc2s1 [Example 153, 3-[4-(6-Amino-5-benzothiazol-2-ylpyridin-3-yl)-pyrazol-1-yl]-1-pyrrolidin-1-ylpropan-1-one] | > 20000 nM | 100 to 1000 nM
3 | CNC(=O)CN1CCC(n2cc(-c3cnc(N)c(-c4nc5ccccc5s4)c3)cn2)CC1 [Example 163, 2-{4-[4-(6-Amino-5-benzothiazol-2-ylpyridin-3-yl)-pyrazol-1-yl]-piperidin-1-yl}-N-methylacetamide] | 100 to 1000 nM | 100 to 1000 nM
4 | CN(C)C(=O)CN1CCC(n2cc(-c3cnc(N)c(-c4nc5ccccc5s4)c3)cn2)CC1 [Example 164, 2-{4-[4-(6-Amino-5-benzothiazol-2-ylpyridin-3-yl)-pyrazol-1-yl]-piperidin-1-yl}-N,N-dimethylacetamide] | 100 to 1000 nM | 100 to 1000 nM
5 | Nc1ncc(-c2cnn(C3CCN(CC(=O)N4CCCC4)CC3)c2)cc1-c1nc2ccccc2s1 [Example 166, 2-{4-[4-(6-Amino-5-benzothiazol-2-ylpyridin-3-yl)-pyrazol-1-yl]-piperidin-1-yl}-1-pyrrolidin-1-ylethanone] | 100 to 1000 nM | ≤ 100 nM
6 | Nc1ncc(-c2cnn(C3CCN(CC(=O)N4CCC(O)C4)CC3)c2)cc1-c1nc2ccccc2s1 (stereo not drawn) [Example 167, 2-{4-[4-(6-Amino-5-benzothiazol-2-ylpyridin-3-yl)-pyrazol-1-yl]-piperidin-1-yl}-1-(3-hydroxypyrrolidin-1-yl)ethanone] | 100 to 1000 nM | ≤ 100 nM
7 | Nc1ncc(-c2cnn(C3CCN(CC(=O)N4CCCCC4)CC3)c2)cc1-c1nc2ccccc2s1 [Example 168, 2-{4-[4-(6-Amino-5-benzothiazol-2-ylpyridin-3-yl)-pyrazol-1-yl]-piperidin-1-yl}-1-piperidin-1-ylethanone] | 100 to 1000 nM | 100 to 1000 nM
8 | Nc1ncc(-c2cnn(C3CCN(CC(=O)N4CCC(O)CC4)CC3)c2)cc1-c1nc2ccccc2s1 [Example 169, 2-{4-[4-(6-Amino-5-benzothiazol-2-ylpyridin-3-yl)-pyrazol-1-yl]-piperidin-1-yl}-1-(4-hydroxypiperidin-1-yl)ethanone] | 100 to 1000 nM | ≤ 100 nM
9 | Nc1ncc(-c2cnn(C3CCN(CC(=O)N4CCOCC4)CC3)c2)cc1-c1nc2ccccc2s1 [Example 170, 2-{4-[4-(6-Amino-5-benzothiazol-2-ylpyridin-3-yl)-pyrazol-1-yl]-piperidin-1-yl}-1-morpholin-4-ylethanone] | 100 to 1000 nM | ≤ 100 nM
10 | Nc1ncc(-c2cnn(C3CCN(CC(=O)NCCO)CC3)c2)cc1-c1nc2ccccc2s1 [Example 171, 2-{4-[4-(6-Amino-5-benzothiazol-2-ylpyridin-3-yl)-pyrazol-1-yl]-piperidin-1-yl}-N-(2-hydroxyethyl)-acetamide] | 100 to 1000 nM | ≤ 100 nM
11 | COCCNC(=O)CN1CCC(n2cc(-c3cnc(N)c(-c4nc5ccccc5s4)c3)cn2)CC1 [Example 172, 2-{4-[4-(6-Amino-5-benzothiazol-2-ylpyridin-3-yl)-pyrazol-1-yl]-piperidin-1-yl}-N-(2-methoxyethyl)-acetamide] | 100 to 1000 nM | 100 to 1000 nM
12 | COCCN(CCOC)C(=O)CN1CCC(n2cc(-c3cnc(N)c(-c4nc5ccccc5s4)c3)cn2)CC1 [Example 173, 2-{4-[4-(6-Amino-5-benzothiazol-2-ylpyridin-3-yl)-pyrazol-1-yl]-piperidin-1-yl}-N,N-bis-(2-methoxyethyl)-acetamide] | 100 to 1000 nM | 100 to 1000 nM
13 | CN1CCN(C(=O)c2ccc(-c3cnc(N)c(-c4nc5ccccc5s4)c3)cc2)CC1 [Example 182, [4-(6-Amino-5-benzothiazol-2-ylpyridin-3-yl)phenyl]-(4-methylpiperazin-1-yl)methanone] | 1000 to 20000 nM | 100 to 1000 nM

Second part, the molecule after the results:

Row | IC50 [1] | IC50 [2] | SMILES
14 | 100 to 1000 nM | ≤ 100 nM | Nc1ncc(-c2cnn([C@@H]3CN[C@H](C(=O)O)C3)c2)cc1-c1nc2ccccc2s1 [Example 154, (2S,4S)-4-[4-(6-Amino-5-benzothiazol-2-ylpyridin-3-yl)-pyrazol-1-yl]-pyrrolidine-2-carboxylic acid]
15 | 100 to 1000 nM | ≤ 100 nM | CN(C)C(=O)[C@@H]1C[C@H](n2cc(-c3cnc(N)c(-c4nc5ccccc5s4)c3)cn2)CN1 [Example 155, (2S,4S)-4-[4-(6-Amino-5-benzothiazol-2-ylpyridin-3-yl)-pyrazol-1-yl]-pyrrolidine-2-carboxylic acid dimethylamide]
16 | ≤ 100 nM | ≤ 100 nM | Nc1ncc(-c2cnn([C@@H]3CN[C@H](C(=O)N4CCCC4)C3)c2)cc1-c1nc2ccccc2s1 [Example 156, {(2S,4S)-4-[4-(6-Amino-5-benzothiazol-2-ylpyridin-3-yl)-pyrazol-1-yl]-pyrrolidin-2-yl}-pyrrolidin-1-ylmethanone]
17 | ≤ 100 nM | ≤ 100 nM | Nc1ncc(-c2cnn([C@@H]3CN[C@H](C(=O)N4CCOCC4)C3)c2)cc1-c1nc2ccccc2s1 [Example 157, {(2S,4S)-4-[4-(6-Amino-5-benzothiazol-2-ylpyridin-3-yl)-pyrazol-1-yl]-pyrrolidin-2-yl}-morpholin-4-ylmethanone]
18 | ≤ 100 nM | ≤ 100 nM | Nc1ncc(-c2cnn([C@@H]3CN[C@H](C(=O)N4CCCCC4)C3)c2)cc1-c1nc2ccccc2s1 [Example 158, {(2S,4S)-4-[4-(6-Amino-5-benzothiazol-2-ylpyridin-3-yl)-pyrazol-1-yl]-pyrrolidin-2-yl}-piperidin-1-ylmethanone]
19 | ≤ 100 nM | ≤ 100 nM | Nc1ncc(-c2cnn([C@@H]3CN[C@H](C(=O)N4CCC(O)C4)C3)c2)cc1-c1nc2ccccc2s1 (stereo partly drawn) [Example 159, {(2S,4S)-4-[4-(6-Amino-5-benzothiazol-2-ylpyridin-3-yl)-pyrazol-1-yl]-pyrrolidin-2-yl}-(3-hydroxypyrrolidin-1-yl)-methanone]
20 | 100 to 1000 nM | ≤ 100 nM | Nc1ncc(-c2cnn([C@@H]3CN[C@H](C(=O)N4CCC4)C3)c2)cc1-c1nc2ccccc2s1 [Example 160, {(2S,4S)-4-[4-(6-Amino-5-benzothiazol-2-ylpyridin-3-yl)-pyrazol-1-yl]-pyrrolidin-2-yl}-azetidin-1-ylmethanone]
21 | 100 to 1000 nM | ≤ 100 nM | Nc1ncc(-c2cnn(C3CCN(CC(=O)O)CC3)c2)cc1-c1nc2ccccc2s1 [Example 161, {4-[4-(6-Amino-5-benzothiazol-2-ylpyridin-3-yl)-pyrazol-1-yl]-piperidin-1-yl}-acetic acid]
22 | 100 to 1000 nM | ≤ 100 nM | NC(=O)CN1CCC(n2cc(-c3cnc(N)c(-c4nc5ccccc5s4)c3)cn2)CC1 [Example 162, 2-{4-[4-(6-Amino-5-benzothiazol-2-ylpyridin-3-yl)-pyrazol-1-yl]-piperidin-1-yl}-acetamide]
23 | 100 to 1000 nM | 100 to 1000 nM | Nc1ncc(-c2cnn(C3CCN(CC(=O)N4CCC4)CC3)c2)cc1-c1nc2ccccc2s1 [Example 165, 2-{4-[4-(6-Amino-5-benzothiazol-2-ylpyridin-3-yl)-pyrazol-1-yl]-piperidin-1-yl}-1-azetidin-1-ylethanone]
24 | 1000 to 20000 nM | ≤ 100 nM | Nc1ncc(-c2cnn([C@@H]3CN[C@@H](C(=O)O)C3)c2)cc1-c1nc2ccccc2s1 [Example 174, (2R,4S)-4-[4-(6-Amino-5-benzothiazol-2-ylpyridin-3-yl)-pyrazol-1-yl]-pyrrolidine-2-carboxylic acid]
25 | 100 to 1000 nM | 100 to 1000 nM | CN(C)C(=O)[C@H]1C[C@H](n2cc(-c3cnc(N)c(-c4nc5ccccc5s4)c3)cn2)CN1 [Example 175, (2R,4S)-4-[4-(6-Amino-5-benzothiazol-2-ylpyridin-3-yl)-pyrazol-1-yl]-pyrrolidine-2-carboxylic acid dimethylamide]
26 | 100 to 1000 nM | 100 to 1000 nM | Nc1ncc(-c2cnn([C@@H]3CN[C@@H](C(=O)N4CCCC4)C3)c2)cc1-c1nc2ccccc2s1 [Example 176, {(2R,4S)-4-[4-(6-Amino-5-benzothiazol-2-ylpyridin-3-yl)-pyrazol-1-yl]-pyrrolidin-2-yl}-pyrrolidin-1-ylmethanone]
27 | 100 to 1000 nM | ≤ 100 nM | Nc1ncc(-c2cnn([C@@H]3CN[C@@H](C(=O)N4CCC(O)C4)C3)c2)cc1-c1nc2ccccc2s1 (stereo partly drawn) [Example 177, {(2R,4S)-4-[4-(6-Amino-5-benzothiazol-2-ylpyridin-3-yl)-pyrazol-1-yl]-pyrrolidin-2-yl}-(3-hydroxypyrrolidin-1-yl)methanone]
28 | 100 to 1000 nM | 100 to 1000 nM | Nc1ncc(-c2cnn([C@@H]3CN[C@@H](C(=O)N4CCCCC4)C3)c2)cc1-c1nc2ccccc2s1 [Example 178, {(2R,4S)-4-[4-(6-Amino-5-benzothiazol-2-ylpyridin-3-yl)-pyrazol-1-yl]-pyrrolidin-2-yl}-piperidin-1-ylmethanone]
29 | 100 to 1000 nM | ≤ 100 nM | Nc1ncc(-c2cnn([C@@H]3CN[C@@H](C(=O)N4CCOCC4)C3)c2)cc1-c1nc2ccccc2s1 [Example 179, {(2R,4S)-4-[4-(6-Amino-5-benzothiazol-2-ylpyridin-3-yl)-pyrazol-1-yl]-pyrrolidin-2-yl}-morpholin-4-ylmethanone]
30 | 100 to 1000 nM | ≤ 100 nM | Nc1ncc(-c2cnn(C3CNC3)c2)cc1-c1nc2ccccc2s1 [Example 181, 5-(1-Azetidin-3-yl-1H-pyrazol-4-yl)-3-benzothiazol-2-ylpyridin-2-ylamine trifluoroacetate]
